Data set [1] in a line: Mixing with coenzyme Q10, color of the mixture. Format: physicochemical. To be noted: weight ratio 1:1.
For the next data set, the system named is Escherichia coli JM109. As to the kind of experiment: Effect on bacterial growth (viable bacteria count). Format: cell-based. To be noted: 8 mg sample + 100 μL E. coli JM109 solution (turbidity at 660 nm 0.57), 30 minutes room temperature, then 900 μL PBS, LB agar 30° C., colonies. How it is done:
Escherichia coli JM109 was cultivated overnight in an LB medium at 30° C. The cultivated Escherichia coli JM109 was diluted with a phosphate buffer (PBS) having pH of 7.4 manufactured by GIBCO to obtain a solution 1 having turbidity at 660 nm of 0.57. To 8 mg of each sample shown in Table 2, 100 μL of the solution 1 was added at room temperature, and after 30 minutes, 900 μL of PBS was further added to obtain a solution 2. The solution 2 was planted in a petri dish with an LB agar medium and cultivated at 30° C., and a viable bacteria count was determined from the number of colonies in the solution 2.

Data set [2] is described as follows: High-performance liquid chromatography analysis: return of PQQ alcohol adduct to PQQ. Format: physicochemical. To be noted: 1 mg/ML adduct in phosphate buffer pH 7.4, left at room temperature for 2 hours, HPLC. How it is done:
The high-performance liquid chromatography analysis of the PQQ alcohol adduct or the like was performed as follows.
A column: YMC-Pack ODS-TMS (5 μm) 150×4.6 mm I.D. was arranged in a high-performance liquid chromatography LC-20A manufactured by Shimadzu Corporation, and detection was performed at 260 nm using an eluent of 100 mM CH3COOH/100 mM CH3COONH4 (30/70, pH 5.1) and an absorption detector.
The PQQ methanol adduct obtained in Example 1 was added to a phosphate buffer (manufactured by Invitrogen pH 7.4) to obtain 1 mg/ML of a PQQ methanol adduct solution. After the PQQ methanol adduct solution was left at room temperature for 2 hours, the high-performance liquid chromatography analysis was performed. […] That is, the PQQ methanol adduct obtained in Example 1 returned to the original PQQ free body by the addition of the phosphate buffer and being left at room temperature for 2 hours.

Data set [3] can be described thus: Stability test in polypropylene container in oven (change of color). Format: physicochemical. How it is done: It is to be noted that 100 μL of ODO, Nisshin Oillio was used as an edible fat and oil.

With `O=C([O-])c1cc(C(=O)[O-])c2c(n1)C(=O)C(=O)c1cc(C(=O)O)[nH]c1-2.[Na+].[Na+]` [PQQ disodium], the “Color of mixture with coenzyme Q10” value in data set [1] is “Brown”.
Regarding `O=C(O)c1cc(C(=O)O)c2c(n1)C(=O)C(=O)c1cc(C(=O)O)[nH]c1-2` [PQQ free body, Pyrroloquinoline quinone], in data set [1], the “Color of mixture with coenzyme Q10” value was “Brown”. The Viable bacteria count with Escherichia coli JM109 is 80.
On to `COC1(O)C(=O)c2cc(C(=O)O)[nH]c2-c2c(C(=O)O)cc(C(=O)O)nc21` (stereo not drawn) [PQQ methanol adduct], for which, in data set [2], the “PQQ existing in the PQQ methanol adduct solution” value turned out to be 0.92 mg/mL. Moreover, the “Color of mixture with coenzyme Q10” value in data set [1] is “Yellow”. Further, the Viable bacteria count with Escherichia coli JM109 stood at 0. Besides, the “Observation result after 7 days” value in data set [3] (30° C., container's cover opened, 5 mg) was “Red powder”. In addition, in data set [3] (Table 5), the “Discoloration in the opened state (container's cover opened)” value is recorded as “immediately discolored to red” and the “Stability in the sealed state of the container” value was “stable”.

For the origin of these results see patent US9604979B2, “Pyrroloquinoline quinone alcohol adduct” (Mitsubishi Gas Chemical Company, Inc., priority 2011, dated 2017).
